Results on 16 compounds are retold here after patent publication US11090304B2 (Amgen Inc., priority 2018, dated 2021).

Experiment [1] deals with Phosphorylation of ERK1/2 in MIA PaCa-2 cells. The experiment can be described thus: Phospho-ERK1/2 MSD assay in MIA PaCa-2 cells. The experiment is classed as cell-based. The note with it: Homo sapiens, MIA PaCa-2, 2 h, read-out: p-ERK IC50 (2 h; MIA PaCa-2), 2 h compound treatment. The gist of the method:
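MIA PaCa-2 or A549 cells were treated with a compound dose-response titration for 2 or 4 h at 37 °C, then stimulated with 10 ng/mL EGF for 10 min. Phospho-ERK1/2 in RIPA lysates was measured by MSD whole-cell lysate immunoassay, and IC50 came from a 4-parameter logistic fit.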

The target of experiment [2] is GDP-bound KRAS protein (aa 1-169), containing both G12C and C118A amino acid substitutions (Homo sapiens, UniProt P01116, C118A/G12C). The experiment can be described thus: Coupled nucleotide exchange assay (SOS-mediated, AlphaScreen). The note with it: 5 min compound pre-incubation. Format: biochemical.
Chain of GDP-bound KRAS protein (aa 1-169), containing both G12C and C118A amino acid substitutions (P01116 1-169 isoform P01116-2 G12C/C118A): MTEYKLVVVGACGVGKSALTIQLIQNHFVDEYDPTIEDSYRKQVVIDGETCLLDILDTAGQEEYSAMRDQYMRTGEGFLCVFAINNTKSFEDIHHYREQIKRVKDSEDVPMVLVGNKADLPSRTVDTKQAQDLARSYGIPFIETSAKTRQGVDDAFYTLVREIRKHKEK

`C=CC(=O)N1CCN(c2nc(=O)n(-c3ccnn3C(C)C)c3nc(-c4c(O)cccc4F)c(Cl)cc23)[C@@H](C)C1` [Example 54-25, 6-chloro-7-(2-fluoro-6-hydroxy-phenyl)-4-((2S)-2-methyl-4-(2-propenoyl)-1-piperazinyl)-1-(1-(2-propanyl)-1H-pyrazol-5-yl)pyrido[2,3-d]pyrimidin-2(1H)-one]: the values for the concentration for half-maximal inhibition (IC50) in experiment [1] and in experiment [2] (read-out: Coupled exchange IC50 (5 min)) were 218 nM and 164 nM, respectively.

Turning to `C=CC(=O)N1CCN(c2nc(=O)n(-c3cncnc3C(C)C)c3nc(-c4c(O)cccc4F)c(Cl)cc23)[C@@H](C)C1` [Example 54-26, 6-chloro-7-(2-fluoro-6-hydroxy-phenyl)-4-((2S)-2-methyl-4-(2-propenoyl)-1-piperazinyl)-1-(4-(2-propanyl)-5-pyrimidinyl) pyrido[2,3-d]pyrimidin-2(1H)-one], in experiment [1], the half-maximal inhibitory concentration (IC50) is 220 nM. Further, in experiment [2], the “Coupled exchange IC50 (5 min)” value is on record as 0.105 | nda μM.

As for `C=CC(=O)N1CCN(c2nc(=O)n(-c3ccnn3C3CCC3)c3nc(-c4c(O)cccc4F)c(Cl)cc23)[C@@H](C)C1` [Example 54-28, 6~chloro-1-(1-cyclobutyl-1H-pyrazol-5-yl)-7-(2-fluoro-6-hydroxyphenyl)-4-((2S)-2-methyl-4-(2-propenoyl)-1-piperazinyl) pyrido[2,3-d]pyrimidin-2(1H)-one], in experiment [1], the IC50 is 245 nM. For the same compound, the “Coupled exchange IC50 (5 min)” value in experiment [2] was 0.19 | nda μM.

Turning to `C=CC(=O)N1CCN(c2nc(=O)n(-c3ccnn3C3CCC3)c3nc(-c4ccccc4F)c(Cl)cc23)[C@@H](C)C1` [Example 54-29, 6-chloro-1-(1-cyclobutyl-1H-pyrazol-5-yl)-7-(2-fluorophenyl)-4-((2S)-2-methyl-4-(2-propenoyl)-1-piperazinyl) pyrido[2,3-d]pyrimidin-2(1H)-one], the half-inhibitory concentration (IC50) in experiment [1] came to 717 nM. Further, the “Coupled exchange IC50 (5 min)” value in experiment [2] is 0.406 | nda μM.

In the case of `C=CC(=O)N1CCN(c2nc(=O)n(-c3ccccc3CC)c3nc(-c4c(O)cccc4F)c(Cl)cc23)[C@@H](C)C1` [Example 54-34, 6-chloro-1-(2-ethylphenyl)-7-(2-fluoro-6-hydroxyphenyl)-4-((2S)-2-methyl-4-(2-propenoyl)-1-piperazinyl) pyrido[2,3-d]pyrimidin-2(1H)-one], the half-inhibitory concentration (IC50) in experiment [1] came to 97 nM. Also, the “Coupled exchange IC50 (5 min)” value in experiment [2] is 0.325 | nda μM.

On to `C=CC(=O)N1CCN(c2nc(=O)n(-c3ccccc3Cl)c3nc(-c4c(O)cccc4F)c(Cl)cc23)[C@@H](C)C1` [Example 54-35, 6-chloro-1-(2-chlorophenyl)-7-(2-fluoro-6-hydroxyphenyl)-4-((2S)-2-methyl-4-(2-propenoyl)-1-piperazinyl) pyrido[2,3-d]pyrimidin-2(1H)-one], for which, in experiment [1], the IC50 was 383 nM. For the same compound, in experiment [2], the “Coupled exchange IC50 (5 min)” value was 0.582 | nda μM.

Consider `C=CC(=O)N1CCN(c2nc(=O)n(-c3ccncc3C(C)C)c3nc(-c4c(O)cccc4F)c(Cl)cc23)[C@@H](C)C1` [Example 54-36, 6-chloro-7-(2-fluoro-6-hydroxy-phenyl)-4-((2S)-2-methyl-4-(2-propenoyl)-1-piperazinyl)-1-(3-(2-propanyl)-4-pyridinyl) pyrido[2,3-d]pyrimidin-2(1H)-one], for which, in experiment [1], the IC50 was 158 nM. In addition, the “Coupled exchange IC50 (5 min)” value in experiment [2] is recorded as 0.149 | nda μM.

As for `C=CC(=O)N1CCN(c2nc(=O)n(-c3nccnc3CC)c3nc(-c4c(O)cccc4F)c(Cl)cc23)[C@@H](C)C1` [Example 54-37, 6-chloro-1-(3-ethyl-2-pyrazinyl)-7-(2-fluoro-6-hydroxy-phenyl)-4-((2S)-2-methyl-4-(2-propenoyl)-1-piperazinyl) pyrido[2,3-d]pyrimidin-2(1H)-one], the IC50 in experiment [1] is 227 nM. In addition, the “Coupled exchange IC50 (5 min)” value in experiment [2] is on record as 0.304 | nda μM.

Turning to `C=CC(=O)N1CCN(c2nc(=O)n(-c3nccnc3CC)c3nc(-c4ccccc4F)c(Cl)cc23)[C@@H](C)C1` [Example 54-38, 6-chloro-1-(3-ethyl-2-pyrazinyl)-7-(2-fluorophenyl)-4-((2S)-2-methyl-4-(2-propenoyl)-1-piperazinyl) pyrido[2,3-d]pyrimidin-2(1H)-one], the IC50 in experiment [1] was 297 nM. Further, the “Coupled exchange IC50 (5 min)” value in experiment [2] is 0.651 | nda μM.

For the compound `C=CC(=O)N1CCN(c2nc(=O)n(-c3ccccc3N(C)C)c3nc(-c4c(O)cccc4F)c(Cl)cc23)[C@@H](C)C1` [Example 54-42, 6-chloro-1-(2-(dimethylamino)phenyl)-7-(2-fluoro-6-hydroxyphenyl)-4-((2S)-2-methyl-4-(2-propenoyl)-1-piperazinyl) pyrido[2,3-d]pyrimidin-2(1H)-one], in experiment [1], the IC50 was found to be 322 nM. The “Coupled exchange IC50 (5 min)” value in experiment [2] is 0.79 | nda μM.

As for `C=CC(=O)N1CCN(c2nc(=O)n(-c3ccccc3C(C)C)c3nc(-c4cc(OC(F)F)ccc4F)c(Cl)cc23)[C@@H](C)C1` [Example 54-51, 6-chloro-7-(5-(difluoromethoxy)-2-fluorophenyl)-4-((2S)-2-methyl-4-(2-propenoyl)-1-piperazinyl)-1-(2-(2-propanyl)phenyl)pyrido [2,3-d]pyrimidin-2(1H)-one], the half-inhibitory concentration (IC50) in experiment [1] came to 204 nM. Besides, in experiment [2], the “Coupled exchange IC50 (5 min)” value is recorded as 0.265 | nda μM.

On to `C=CC(=O)N1CCN(c2nc(=O)n(-c3nonc3C(C)C)c3nc(-c4c(O)cccc4F)c(Cl)cc23)[C@@H](C)C1` [Example 54-52, 6-chloro-7-(2-fluoro-6-hydroxyphenyl)-4-((2S)-2-methyl-4-(2-propenoyl)-1-piperazinyl)-1-(4-(2-propanyl)-1,2,5-oxadiazol-3-yl)pyrido[2,3-d]pyrimidin-2(1H)-one], for which the IC50 in experiment [1] is 666 nM. Moreover, the “Coupled exchange IC50 (5 min)” value in experiment [2] is 0.445 | nda μM.

Consider `C=CC(=O)N1CCN(c2nc(=O)n(-c3ncc(C#N)cc3CC)c3nc(-c4c(O)cccc4F)c(Cl)cc23)[C@@H](C)C1` [Example 54-53, 6-(6-chloro~7-(2-fluoro-6-hydroxyphenyl)-4-((2S)-2-methyl-4-(2-propenoyl)-1-piperazinyl)-2-oxopyrido[2,3-d]pyrimidin-1(2H)-yl)-5-ethyl-3-pyridine-carbonitrile], for which, in experiment [1], the 50% inhibitory concentration (IC50) was 593 nM. Also, the “Coupled exchange IC50 (5 min)” value in experiment [2] is given as 0.193 | nda μM.

As to `C=CC(=O)N1CCN(c2nc(=O)n(-c3cncnc3C3(C)CC3)c3nc(-c4ccccc4F)c(Cl)cc23)[C@@H](C)C1` [Example 54-54, 6-chloro-7-(2-fluorophenyl)-1-(4-(1-methyl-cyclopropyl)-5-pyrimidinyl)-4-((2S)-2-methyl-4-(2-propenoyl)-1-piperazinyl) pyrido[2,3-d]pyrimidin-2(1H)-one], the IC50 in experiment [1] came to 360 nM. In experiment [2], the “Coupled exchange IC50 (5 min)” value is listed as 0.377 | nda μM.

`C=CC(=O)N1CCN(c2nc(=O)n(-c3cncnc3C3(C)CC3)c3nc(-c4c(O)cccc4F)c(Cl)cc23)[C@@H](C)C1` [Example 54-55, 6-chloro-7-(2-fluoro-6-hydroxyphenyl)-1-(4-(1-methyl-cyclopropyl)-5-pyrimidinyl)-4-((2S)-2-methyl-4-(2-propenoyl)-1-piperazinyl) pyrido[2,3-d]pyrimidin-2(1H)-one]: the IC50 in experiment [1] worked out at 578 nM. Also, the “Coupled exchange IC50 (5 min)” value in experiment [2] is 0.133 | nda μM.

On to `C=CC(=O)N1CCN(c2nc(=O)n(-c3c(C)cnn3C(C)C)c3nc(-c4ccc(F)cc4F)c(Cl)cc23)[C@@H](C)C1` [Example 54-71, 6-chloro-7-(2,4-difluorophenyl)-1-(4-methyl-1-(2-propanyl)-1H-pyrazol-5-yl)-4-((2S)-2-methyl-4-(2-propenoyl)-1-piperazinyl) pyrido[2,3-d]pyrimidin-2(1H)-one], for which the IC50 in experiment [1] was determined as 164 nM. Also, in experiment [2], the “Coupled exchange IC50 (5 min)” value is on record as 0.174 | nda μM.
